PubChem BioAssay (NCI)
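Briefly, cells in 96-well plates were exposed to five compound concentrations for 48 h, and endpoints were estimated by linear interpolation. GI50: concentration for 50% inhibition of growth. The concentration for full growth arrest is given as TGI.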

How the values were obtained:
Assay in all cases: NCI-60 cell line screen, 48 h
DU-145 prostate = test system: DU-145 prostate
K-562 leukemia = test system: K-562 leukemia
HOP-62 NSCLC = test system: HOP-62 NSCLC
MCF7 breast = test system: MCF7 breast
SNB-75 CNS = test system: SNB-75 CNS
SK-MEL-5 melanoma = test system: SK-MEL-5 melanoma
M14 melanoma = test system: M14 melanoma
MDA-MB-231 breast = test system: MDA-MB-231 breast

| SMILES | GI50 (DU-145 prostate) [µM] | TGI (DU-145 prostate) [µM] | GI50 (K-562 leukemia) [µM] | TGI (K-562 leukemia) [µM] | GI50 (HOP-62 NSCLC) [µM] | TGI (HOP-62 NSCLC) [µM] | GI50 (MCF7 breast) [µM] | TGI (MCF7 breast) [µM] | GI50 (SNB-75 CNS) [µM] | TGI (SNB-75 CNS) [µM] | GI50 (SK-MEL-5 melanoma) [µM] | TGI (SK-MEL-5 melanoma) [µM] | GI50 (M14 melanoma) [µM] | TGI (M14 melanoma) [µM] | GI50 (MDA-MB-231 breast) [µM] | TGI (MDA-MB-231 breast) [µM] |
| --- | --- | --- | --- | --- | --- | --- | --- | --- | --- | --- | --- | --- | --- | --- | --- | --- |
| O=C(Nc1ccc(-c2nc(N3CCOCC3)c3cccn3n2)cc1)Nc1cccnc1 | 0.212 | > 100 | 0.195 | > 100 | 0.336 | > 100 | 0.0483 | 1.49 | 0.0432 | 0.64 | 0.196 | 0.847 | – | – | – | – |
| O=C1CCC(N2C(=O)c3ccccc3C2=O)C(=O)N1CO (stereo unspecified) | 25 | 79.6 | > 100 | > 100 | > 100 | > 100 | 26.6 | > 100 | > 100 | > 100 | – | – | 54.7 | > 100 | > 100 | > 100 |
| CCN(CC)C(c1ccc(N(C)C)cc1)C(c1ccc(N(C)C)cc1)N(CC)CC (stereo unspecified) | – | – | – | > 73 | – | > 73 | – | – | – | > 73 | – | > 73 | – | > 73 | – | – |
| O=C(CC1C(=O)NN(c2ccc(Br)cc2)C1=O)c1cc(O)ccc1O (stereo unspecified) | 21.2 | > 50 | 14.8 | > 50 | – | – | 21.2 | > 50 | 24.8 | > 50 | 18.6 | > 50 | 31.2 | > 50 | 8.44 | 22.4 |
| COc1ccc2c(c1)[n+](=O)c(C(=O)C/C(=N/OCCCc1ccccc1)C(=O)NC13CC4CC(CC(C4)C1)C3)c(C)n2[O-] | – | – | – | > 100 | – | > 100 | – | – | – | > 100 | – | > 100 | – | > 100 | – | – |
| CNC(=O)C1CCc2nnc(-c3ccccc3)n21 (stereo unspecified) | – | – | – | > 100 | – | > 100 | – | – | – | > 100 | – | > 100 | – | > 100 | – | – |
| COc1ccc2nc3c(C(=O)NCCN(C)C)cccc3nc2c1 | – | – | – | 29.5 | – | 21.4 | – | – | – | 25.5 | – | 15.7 | – | 19.5 | – | – |
| CC(C)(CO)N1CCN(C(=S)Nc2ccccc2)CC1 | – | – | – | 99.5 | – | > 100 | – | > 100 | – | > 100 | – | > 100 | – | > 100 | – | > 100 |
| C/C(CC(=O)Nc1cc(C)ccc1C)=N\NC(=O)c1ccncc1 | – | – | – | > 100 | – | > 100 | – | – | – | > 100 | – | > 100 | – | > 100 | – | – |
| Nc1c(-c2ccc(Cl)cc2)[n+]([O-])c2ccccc2[n+]1[O-] | – | – | – | > 100 | – | > 100 | – | – | – | > 100 | – | > 100 | – | > 100 | – | – |
| O=C(CC1(O)C(=O)Nc2c(Cl)ccc(Cl)c21)c1ccc(F)cc1 (stereo unspecified) | – | – | – | > 100 | – | > 100 | – | – | – | 74.7 | – | 38.6 | – | > 100 | – | – |
| Cc1cc(Cl)cc2c1NC(=O)C2(O)CC(=O)c1ccco1 (stereo unspecified) | – | > 100 | – | 54.6 | – | > 100 | – | – | – | > 100 | – | 51.5 | – | > 100 | – | > 100 |
| CC(SC(=S)N1CCOCC1)c1cc2oc(=O)n(C)c2cc1Cl (stereo unspecified) | – | – | – | > 100 | – | > 100 | – | – | – | > 100 | – | > 100 | – | > 100 | – | – |
| O=c1cc(-c2ccccc2)oc2cc(OC/C(=N/O)c3ccccc3)ccc12 | 25.1 | > 50 | 36.5 | > 50 | 22.4 | > 50 | – | – | 9.01 | 32.6 | 20.7 | > 50 | > 50 | > 50 | 6.98 | 23.9 |
| Cc1cc(N(CCC#N)CCC#N)ccc1/C=C1\N=C(c2cc([N+](=O)[O-])ccc2Cl)N(c2cccc(Cl)c2)C1=O | – | – | – | > 100 | – | > 100 | – | – | – | > 100 | – | > 100 | – | > 100 | – | – |
| Cc1ccc(C(=O)N(CCCN)C(c2oc3cc(Cl)ccc3c(=O)c2Cc2ccccc2)C(C)C)cc1 (stereo unspecified) | < 0.01 | – | < 0.01 | 1.41 | < 0.01 | 1.85 | < 0.01 | 1.39 | < 0.01 | 1.46 | < 0.01 | 1.68 | – | – | < 0.01 | – |
| O/N=C/c1ncccc1C1OCCO1 | – | – | – | > 100 | – | > 100 | – | – | – | > 100 | – | > 100 | – | > 100 | – | – |
| C[C@@H]1OC(=O)N2CCCC(=C3SCCCS3)C12 (stereo partly specified) | – | – | – | > 100 | – | – | – | – | – | > 100 | – | – | – | > 100 | – | – |
| Cn1c2ccccc2c2ccc3c(c21)C(=O)c1ccccc1C3=O | – | > 100 | – | 32.2 | – | 45.5 | – | – | – | – | – | 30.2 | – | 83 | – | 64.2 |
| CCCCCCCC[C@@H](O)CC(=O)N[C@@H](CC(N)=O)C(=O)N[C@@H](CCC(N)=O)C(=O)N[C@@H](CC(=O)c1cc(C)cc(O)c1C(=O)c1c(O)cccc1O)CC(C)C | 1.14 | 18.3 | 0.408 | > 100 | 0.86 | 4.92 | 0.539 | > 100 | 0.199 | 0.585 | – | – | 0.735 | 18.4 | 0.678 | 68.3 |
| O=C1c2ccccc2C(=O)N1CCc1ncc[nH]1 | – | > 100 | – | > 100 | – | – | – | > 100 | – | – | – | > 100 | – | > 100 | – | – |
| C/C(O)=C(\N=O)C(=O)Nc1ccc(Cl)cc1Cl | – | – | – | > 100 | – | > 100 | – | – | – | > 100 | – | > 100 | – | > 100 | – | – |
| Cc1c(C(=O)C/C(=N/NC(=O)C[N+](C)(C)C)C(=O)Nc2ccc(Cl)cc2)[n+](=O)c2ccccc2n1O | – | – | – | > 100 | – | > 100 | – | – | – | > 100 | – | > 100 | – | > 100 | – | – |
| O=C(CC1(O)C(=O)Nc2ccccc21)c1ccncc1 (stereo unspecified) | – | – | – | > 100 | – | – | – | – | – | > 100 | – | > 100 | – | > 100 | – | – |
| CCCn1c(=S)sc2c1nc(C)n1c(Nc3ccccc3)nnc21 | – | – | 6.15 | 37.7 | 7.15 | 23.9 | 6.31 | 47.3 | 12.9 | 71 | 3.31 | 11.2 | 4.72 | 44 | 9.71 | 33 |
| CCOC(=O)/C(C#N)=C/c1[nH]c(C(=O)OCc2ccccc2)c(C)c1C | – | – | – | > 100 | – | > 100 | – | – | – | > 100 | – | > 100 | – | > 100 | – | – |
| COC1(OC)CC2OC1C1N=NN(C(=O)OC(C)(C)C)C21 (stereo unspecified) | – | – | – | > 100 | – | > 100 | – | – | – | > 100 | – | > 100 | – | > 100 | – | – |
